Measured values taken from patent US20250195521A1 (Revolution Medicines, Inc., priority 2020, published 2025).
Read-outs that look alike come from different tables or passages of the source.

Experiments:
[1] = system: NCI-H358 cells (K-Ras G12C); experiment: CellTiter-Glo cell viability, NCI-H358; assay type: cell-based, human; settings: Homo sapiens, NCI-H358, 120 h, read-out: H358 Cell Viability IC50
Method in brief: (§1)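 Endpoint: CellTiter-Glo luminescence on day 5, following ~30 min at room temperature. Data as (sample/mean DMSO)×100, four-parameter logistic fit.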

[2] = system: K-Ras G12C (NCI-H358 cells); experiment: Potency assay: pERK in NCI-H358 cells; assay type: cell-based, human; settings: Homo sapiens; NCI-H358 cells, 4 hours; read-out: pERK EC50 (H358 KRAS G12C)
Method in brief: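 Cells plated the day before were exposed for 4 h at 37° C, 5% CO2 to a 10-point, 3-fold DMSO dilution series (10 mM top stock), in duplicate. Phospho-ERK was read by AlphaLISA SureFire Ultra or by In-Cell Western with DRAQ5 DNA stain, and IC50 came from a 4-parameter sigmoidal fit.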

[3] = system: Capan-1 cells (K-Ras G12V); experiment: CellTiter-Glo cell viability, Capan-1; assay type: cell-based, human; settings: Homo sapiens, CAPAN-1, 120 h, read-out: Capan-1 Cell Viability IC50
Method in brief: as §1

[4] = target: KRAS G13D (Homo sapiens (Human), UniProt P01116+P62937, G13D); experiment: Ras-Raf disruption/FRET/MOA assay (BRAF RBD, Cyclophilin A); assay type: biochemical; settings: read-out: KRAS G13D FRET data IC50
KRAS G13D, sequence (P01116 other isoform, or with tags, fused parts or gaps G13D): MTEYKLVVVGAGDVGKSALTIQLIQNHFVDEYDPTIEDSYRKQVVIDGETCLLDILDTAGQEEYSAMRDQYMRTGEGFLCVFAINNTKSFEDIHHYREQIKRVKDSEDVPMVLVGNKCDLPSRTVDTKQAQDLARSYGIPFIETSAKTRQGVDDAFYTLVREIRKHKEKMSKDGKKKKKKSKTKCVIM
KRAS G13D, sequence (P62937 whole entry): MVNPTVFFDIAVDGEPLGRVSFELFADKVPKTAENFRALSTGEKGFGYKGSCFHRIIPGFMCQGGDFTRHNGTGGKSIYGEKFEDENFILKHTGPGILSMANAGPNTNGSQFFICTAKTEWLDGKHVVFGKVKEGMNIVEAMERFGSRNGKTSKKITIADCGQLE
Method in brief: (§2)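 TR-FRET read after 1.5 h with 10 nM anti-His Eu-W1024 and 50 nM anti-GST APC, following 3 h at 25 °C of GMPPNP-loaded His6-Ras (12.5 nM), GST-BRAF RBD (50 nM) and Cyclophilin A (25 μM) with compound from 30 μM final, 10 points, 3-fold. IC50 reported; pH 7.3 HEPES, 100 mM NaCl.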

[5] = target: KRAS G12V (Homo sapiens (Human), UniProt P01116+P62937, G12V); experiment: as above; assay type: biochemical; settings: read-out: KRAS G12V FRET IC50
KRAS G12V, sequence (P01116 other isoform, or with tags, fused parts or gaps G12V): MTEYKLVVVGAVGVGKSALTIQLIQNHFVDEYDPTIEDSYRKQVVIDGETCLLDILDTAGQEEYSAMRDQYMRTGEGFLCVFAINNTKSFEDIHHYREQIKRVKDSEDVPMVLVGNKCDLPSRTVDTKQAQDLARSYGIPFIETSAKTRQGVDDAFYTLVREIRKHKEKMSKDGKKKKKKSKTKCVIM
KRAS G12V, sequence (P62937 whole entry): as the sequence (P62937 whole entry) above
Method in brief: as §2

[6] = target: KRAS G12D (Homo sapiens (Human), UniProt P01116+P62937, G12D); experiment: as above; assay type: biochemical; settings: read-out: KRAS G12D FRET IC50
KRAS G12D, sequence (P01116 other isoform, or with tags, fused parts or gaps G12D): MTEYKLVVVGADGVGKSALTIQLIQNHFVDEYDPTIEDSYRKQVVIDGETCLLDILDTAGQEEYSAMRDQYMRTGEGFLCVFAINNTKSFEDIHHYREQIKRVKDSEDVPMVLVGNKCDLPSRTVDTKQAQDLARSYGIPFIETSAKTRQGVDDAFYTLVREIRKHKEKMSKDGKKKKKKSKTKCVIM
KRAS G12D, sequence (P62937 whole entry): as the sequence (P62937 whole entry) above
Method in brief: as §2

[7] = target: KRAS G12S (Homo sapiens (Human), UniProt P01116+P62937, G12S); experiment: as above; assay type: biochemical; settings: read-out: KRAS G12S FRET IC50
KRAS G12S, sequence (P01116 other isoform, or with tags, fused parts or gaps G12S): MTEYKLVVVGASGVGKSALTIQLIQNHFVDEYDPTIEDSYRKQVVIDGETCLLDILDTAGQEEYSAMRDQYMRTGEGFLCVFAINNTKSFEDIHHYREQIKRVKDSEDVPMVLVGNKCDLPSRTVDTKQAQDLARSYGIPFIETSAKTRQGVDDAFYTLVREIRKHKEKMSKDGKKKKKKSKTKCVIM
KRAS G12S, sequence (P62937 whole entry): as the sequence (P62937 whole entry) above
Method in brief: as §2

[8] = target: KRAS G13C (Homo sapiens (Human), UniProt P01116+P62937, G13C); experiment: as above; assay type: biochemical; settings: read-out: KRAS G13C FRET IC50
KRAS G13C, sequence (P01116 other isoform, or with tags, fused parts or gaps G13C): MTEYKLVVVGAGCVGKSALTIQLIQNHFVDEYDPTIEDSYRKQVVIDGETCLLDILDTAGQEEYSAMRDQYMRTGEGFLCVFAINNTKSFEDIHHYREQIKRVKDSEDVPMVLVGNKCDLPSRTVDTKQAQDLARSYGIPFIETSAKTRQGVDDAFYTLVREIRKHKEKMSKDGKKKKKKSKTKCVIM
KRAS G13C, sequence (P62937 whole entry): as the sequence (P62937 whole entry) above
Method in brief: as §2

[9] = target: NRAS G12C (Homo sapiens (Human), UniProt P01111+P62937, G12C); experiment: as above; assay type: biochemical
NRAS G12C, sequence (P01111 whole entry G12C): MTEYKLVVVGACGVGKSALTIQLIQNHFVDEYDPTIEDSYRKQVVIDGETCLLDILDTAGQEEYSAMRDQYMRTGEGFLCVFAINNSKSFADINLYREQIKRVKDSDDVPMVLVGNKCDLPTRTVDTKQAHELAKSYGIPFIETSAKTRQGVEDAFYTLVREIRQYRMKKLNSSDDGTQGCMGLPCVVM
NRAS G12C, sequence (P62937 whole entry): as the sequence (P62937 whole entry) above
Method in brief: as §2

[10] = target: KRAS G12C (Homo sapiens (Human), UniProt P01116+P62937, G12C); experiment: as above; assay type: biochemical; settings: read-out: KRAS G12C FRET IC50
KRAS G12C, sequence (P01116-2 other isoform, or with tags, fused parts or gaps G12C): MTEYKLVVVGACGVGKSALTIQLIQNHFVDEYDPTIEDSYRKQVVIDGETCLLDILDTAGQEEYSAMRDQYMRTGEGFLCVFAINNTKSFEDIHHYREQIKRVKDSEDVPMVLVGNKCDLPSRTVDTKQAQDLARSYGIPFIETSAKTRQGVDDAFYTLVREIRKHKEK
KRAS G12C, sequence (P62937 whole entry): as the sequence (P62937 whole entry) above
Method in brief: as §2

[11] = target: KRAS WT (Homo sapiens (Human), UniProt P01116+P62937); experiment: as above; assay type: biochemical; settings: read-out: KRAS WT FRET data IC50
KRAS WT, sequence (P01116 other isoform, or with tags, fused parts or gaps): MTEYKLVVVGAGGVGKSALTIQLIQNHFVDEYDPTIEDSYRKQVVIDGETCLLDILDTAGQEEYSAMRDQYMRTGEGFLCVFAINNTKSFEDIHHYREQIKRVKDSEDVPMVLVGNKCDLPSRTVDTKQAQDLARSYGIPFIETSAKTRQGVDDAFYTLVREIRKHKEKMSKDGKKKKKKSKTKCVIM
KRAS WT, sequence (P62937 whole entry): as the sequence (P62937 whole entry) above
Method in brief: as §2

[12] = read-out: NRAS G12C FRET data IC50

| SMILES | IC50 ([1]; K-Ras G12C, 5-day treatment) | EC50 [2] | IC50 ([3]; K-Ras G12V, 5-day treatment) | IC50 [4] | IC50 [5] | IC50 [6] | IC50 [7] | IC50 [8] | IC50 [9, 12] | IC50 [10] | IC50 [11] | IC50 [1] | IC50 [3] | IC50 ([9]; NRAS G12C FRET data IC50) |
| --- | --- | --- | --- | --- | --- | --- | --- | --- | --- | --- | --- | --- | --- | --- |
| CCn1c(-c2cccnc2COC)c2c3cc(ccc31)-c1cc(O)cc(c1)C[C@H](NC(=O)[C@H](C(C)C)N(C)C(=O)OC1COC1)C(=O)N1CCC[C@H](N1)C(=O)OCC(C)(C)C2 [Compound A39] | 100 to 1000 nM | < 5000 nM | 100 to 1000 nM | 100 to 1000 nM | 100 to 1000 nM | 1000 to 10000 nM | 100 to 1000 nM | 100 to 1000 nM | 100 to 1000 nM | 100 to 1000 nM | 100 to 1000 nM | – | – | – |
| CCn1c(-c2cnccc2COC)c2c3cc(ccc31)-c1cc(O)cc(c1)C[C@H](NC(=O)[C@H](C(C)C)N1CCCC1=O)C(=O)N1CCC[C@H](N1)C(=O)OCC(C)(C)C2 [Compound A40] | 1000 to 10000 nM | < 5000 nM | 1000 to 10000 nM | 100 to 1000 nM | 100 to 1000 nM | 1000 to 10000 nM | 100 to 1000 nM | 100 to 1000 nM | 100 to 1000 nM | 100 to 1000 nM | 100 to 1000 nM | – | – | – |
| CCn1c(-c2cnccc2COC)c2c3cc(ccc31)-c1cc(O)cc(c1)C[C@H](NC(=O)[C@H](C(C)C)N(C)C(=O)[C@H]1CCCN1C)C(=O)N1CCC[C@H](N1)C(=O)OCC(C)(C)C2 [Compound A83] | 1000 to 10000 nM | < 5000 nM | 1000 to 10000 nM | 100 to 1000 nM | 100 to 1000 nM | 100 to 1000 nM | 100 to 1000 nM | 100 to 1000 nM | 100 to 1000 nM | 100 to 1000 nM | 100 to 1000 nM | – | – | – |
| CCn1c(-c2cccnc2[C@H](C)OC)c2c3cc(ccc31)-c1cc(O)cc(c1)C[C@H](NC(=O)[C@H](C(C)C)N(C)C(=O)O[C@H]1CCN(C)C1)C(=O)N1CCC[C@H](N1)C(=O)OCC(C)(C)C2 [Compound A169] | 100 to 1000 nM | < 5000 nM | 100 to 1000 nM | 10 to 100 nM | 1000 to 10000 nM | 100 to 1000 nM | 100 to 1000 nM | 10 to 100 nM | 100 to 1000 nM | 100 to 1000 nM | 100 to 1000 nM | – | – | – |
| CCn1c(-c2cccnc2[C@H](C)OC)c2c3cc(ccc31)-c1cc(O)cc(c1)C[C@H](NC(=O)[C@H](C(C)C)N(C)C(=O)[C@H]1CCN(C(=O)OC3CC3)C1)C(=O)N1CCC[C@H](N1)C(=O)OCC(C)(C)C2 [Compound A202] | 10 to 100 nM | < 5000 nM | 10 to 100 nM | 10 to 100 nM | 10 to 100 nM | 100 to 1000 nM | 10 to 100 nM | 10 to 100 nM | 10 to 100 nM | 10 to 100 nM | 10 to 100 nM | – | – | – |
| CCn1c(-c2cccnc2[C@H](C)OC)c2c3cc(ccc31)-c1cc(O)cc(c1)C[C@H](NC(=O)[C@H](C(C)C)N(C)C(=O)C1CCc3ncccc3C1)C(=O)N1CCC[C@H](N1)C(=O)OCC(C)(C)C2 (stereo partly drawn) [Compound A247] | 10 to 100 nM | < 5000 nM | 10 to 100 nM | 10 to 100 nM | 10 to 100 nM | 10 to 100 nM | 10 to 100 nM | 10 to 100 nM | 10 to 100 nM | 10 to 100 nM | 10 to 100 nM | – | – | – |
| CCn1c(-c2cccnc2[C@H](C)OC)c2c3cc(ccc31)-c1cc(O)cc(c1)C[C@H](NC(=O)[C@H](C(C)C)N(C)C(=O)C1CC(C)C1)C(=O)N1CCC[C@H](N1)C(=O)OCC(C)(C)C2 (stereo partly drawn) [Compound A384] | 100 to 1000 nM | – | 100 to 1000 nM | 100 to 1000 nM | 100 to 1000 nM | 100 to 1000 nM | 100 to 1000 nM | 10 to 100 nM | 10 to 100 nM | 10 to 100 nM | 100 to 1000 nM | – | – | – |
| CCn1c(-c2cccnc2[C@H](C)OC)c2c3cc(ccc31)-c1cc(O)cc(c1)C[C@H](NC(=O)[C@H](C(C)C)N(C)C(=O)[C@H]1CC[C@@H]1N)C(=O)N1CCC[C@H](N1)C(=O)OCC(C)(C)C2 [Compound A392] | 10 to 100 nM | – | 1000 to 10000 nM | 10 to 100 nM | 100 to 1000 nM | 10 to 100 nM | 10 to 100 nM | 10 to 100 nM | 10 to 100 nM | 10 to 100 nM | 10 to 100 nM | – | – | – |
| CCn1c(-c2cccnc2[C@H](C)OC)c2c3cc(ccc31)-c1cc(O)cc(c1)C[C@H](NC(=O)[C@H](C(C)C)N(C)C(=O)C1CCNC13CCC3)C(=O)N1CCC[C@H](N1)C(=O)OCC(C)(C)C2 (stereo partly drawn) [Compound A393] | 100 to 1000 nM | – | 1000 to 10000 nM | 10 to 100 nM | 100 to 1000 nM | 10 to 100 nM | 10 to 100 nM | 10 to 100 nM | 10 to 100 nM | 10 to 100 nM | 10 to 100 nM | – | – | – |
| CCn1c(-c2cccnc2[C@H](C)OC)c2c3cc(ccc31)-c1csc(n1)C[C@H](NC(=O)[C@H](C(C)C)N(C)C(=O)N1CCOC[C@H]1C)C(=O)N1CCC[C@H](N1)C(=O)OCC(C)(C)C2 [Compound A402] | 10 to 100 nM | – | 10 to 100 nM | 100 to 1000 nM | 100 to 1000 nM | 100 to 1000 nM | 100 to 1000 nM | 100 to 1000 nM | 10 to 100 nM | 10 to 100 nM | 10 to 100 nM | – | – | – |
| CCn1c(-c2cccnc2[C@H](C)OC)c2c3cc(ccc31)-c1cc(O)cc(c1)C[C@H](NC(=O)[C@H](C(C)C)N(C)C(=O)C1CCC(C(F)(F)F)O1)C(=O)N1CCC[C@H](N1)C(=O)OCC(C)(C)C2 (stereo partly drawn) [Compound A408] | – | – | – | 100 to 1000 nM | 100 to 1000 nM | 100 to 1000 nM | 10 to 100 nM | 10 to 100 nM | – | 10 to 100 nM | 100 to 1000 nM | 100 to 1000 nM | 1000 to 10000 nM | 10 to 100 nM |
| CCn1c(-c2cccnc2[C@H](C)OC)c2c3cc(ccc31)-c1cc(O)cc(c1)C[C@H](NC(=O)[C@H](C(C)C)N(C)C(=O)C13CCC(CO1)C3)C(=O)N1CCC[C@H](N1)C(=O)OCC(C)(C)C2 [Compound A410] | 100 to 1000 nM | – | 100 to 1000 nM | 100 to 1000 nM | 100 to 1000 nM | 100 to 1000 nM | 100 to 1000 nM | 10 to 100 nM | 100 to 1000 nM | 10 to 100 nM | 10 to 100 nM | – | – | – |
